Measurements reported in ChEMBL document CHEMBL3593228, “Hedgehog inhibitors from Artocarpus communis and Hyptis suaveolens” (Bioorg Med Chem, 2015).
The source made the active and inactive calls. The rule behind the calls is not given here.

Tests used:
[1] = Cytotoxicity against Hh signaling abnormally activated human PANC1 cells after 24 hrs by fluorometric microculture assay; assay type: functional, cell-based; conditions: PANC-1, 24 h
[2] = Cytotoxicity against mouse C3H10T1/2 cells after 24 hrs by fluorometric microculture assay; assay type: cell-based; conditions: C3H 10T1/2, 24 h
[3] = Inhibition of hedgehog signaling pathway in human HaCaT cells assessed as GLI1-mediated transcriptional activity after 12 hrs by luciferase assay; assay type: cell-based
[4] = target: T1, Zinc finger protein GLI1 (Homo sapiens) (UniProt P08151); assay: Inhibition of GLI1-DNA (unknown origin) complex formation at 15 to 150 uM after 20 mins by electrophoretic mobility shift assay
T1 sequence (whole entry): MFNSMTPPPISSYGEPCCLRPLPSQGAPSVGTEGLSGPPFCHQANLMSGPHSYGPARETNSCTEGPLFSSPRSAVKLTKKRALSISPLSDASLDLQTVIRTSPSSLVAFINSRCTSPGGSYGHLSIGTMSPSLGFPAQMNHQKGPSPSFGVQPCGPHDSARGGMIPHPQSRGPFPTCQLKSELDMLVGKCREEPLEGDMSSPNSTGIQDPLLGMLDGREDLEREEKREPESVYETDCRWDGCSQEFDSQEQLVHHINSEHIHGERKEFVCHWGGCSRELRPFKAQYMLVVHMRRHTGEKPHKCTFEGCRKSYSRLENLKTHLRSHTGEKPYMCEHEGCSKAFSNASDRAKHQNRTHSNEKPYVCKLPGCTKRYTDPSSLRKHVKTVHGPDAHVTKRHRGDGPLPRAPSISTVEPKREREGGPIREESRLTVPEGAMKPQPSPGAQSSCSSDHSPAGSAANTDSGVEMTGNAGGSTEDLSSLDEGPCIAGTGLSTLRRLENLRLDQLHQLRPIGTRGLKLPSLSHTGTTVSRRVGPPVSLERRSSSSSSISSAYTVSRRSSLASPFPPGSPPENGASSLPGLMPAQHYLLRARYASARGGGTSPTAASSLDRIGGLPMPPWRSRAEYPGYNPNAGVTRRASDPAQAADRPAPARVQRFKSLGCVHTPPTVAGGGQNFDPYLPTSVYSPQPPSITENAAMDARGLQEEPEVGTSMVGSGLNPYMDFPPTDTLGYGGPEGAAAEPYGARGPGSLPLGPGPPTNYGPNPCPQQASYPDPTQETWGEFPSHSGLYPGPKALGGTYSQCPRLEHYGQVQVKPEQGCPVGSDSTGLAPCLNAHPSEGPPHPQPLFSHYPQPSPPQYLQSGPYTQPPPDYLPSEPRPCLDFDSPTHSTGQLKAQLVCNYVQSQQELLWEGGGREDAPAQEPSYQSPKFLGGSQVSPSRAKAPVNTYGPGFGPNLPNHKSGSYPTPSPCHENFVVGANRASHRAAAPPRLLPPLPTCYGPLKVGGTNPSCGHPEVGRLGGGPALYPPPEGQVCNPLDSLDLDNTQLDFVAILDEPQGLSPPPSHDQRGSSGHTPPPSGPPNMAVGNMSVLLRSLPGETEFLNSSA

[5] = Inhibition of hedgehog signaling pathway in human HaCaT cells assessed as reduction of BCL2 expression after 12 hrs by Western blotting; assay type: cell-based
[6] = Inhibition of hedgehog signaling pathway in human HaCaT cells assessed as reduction of BCL2 expression at 7.6 uM after 12 hrs by Western blotting; assay type: cell-based
[7] = Inhibition of hedgehog signaling pathway in human DU145 cells assessed as reduction of BCL2 expression at 7 to 13.9 uM after 12 hrs by Western blotting; assay type: cell-based; conditions: DU-145
[8] = test system: DU-145; assay: Cytotoxicity against Hh signaling abnormally activated human DU145 cells after 24 hrs by fluorometric microculture assay; assay type: functional, cell-based; conditions: DU-145, 24 h
[9] = target: T1, Zinc finger protein GLI1 (Homo sapiens); assay: Inhibition of GLI1-DNA (unknown origin) complex formation at 15 to 30 uM after 20 mins by electrophoretic mobility shift assay
[10] = Inhibition of hedgehog signaling pathway in human HaCaT cells assessed as reduction of BCL2 expression at 13.9 uM after 12 hrs by Western blotting; assay type: cell-based

Structure (SMILES) | IC50 [1] | IC50 [2] | IC50 [3] | inhibition [3] | inhibition [4] | inhibition [5] | inhibition [6] | inhibition [7] | IC50 [8] | inhibition [9] | inhibition [10]
CC(C)=CCC/C(C)=C/Cc1c(O)cc2c(c1O)C(=O)C[C@@H](c1ccc(O)cc1)O2 [BONANNIONE A] | 29.9 µM | > 75 µM | 14.6 µM | Dose-dependent effect | – | – | – | – | – | – | –
C=C1C(=O)O[C@H]2/C=C(\C)C[C@@H]3C=C(CC/C=C(\C)CC[C@H]12)C(=O)O3 | 12.1 µM | > 30.5 µM | 4 µM | Dose-dependent effect | inactive | Dose-dependent effect | Active | Active | 32.6 µM | – | –
CC(C)(O)CCCC1(C)Oc2c(O)ccc(CCC(=O)c3ccc(O)cc3O)c2CC1O (stereo not given) | 58.8 µM | – | 43.5 µM | – | – | – | – | – | – | – | –
CC(C)=CCC/C(C)=C/Cc1c(CCC(=O)c2ccc(O)cc2O)ccc(O)c1O | 42.9 µM | > 75 µM | 23.6 µM | Dose-dependent effect | – | – | – | – | 80.6 µM | Active | –
CC1(C)CCC[C@]2(C)Oc3c(O)ccc(CCC(=O)c4ccc(O)cc4O)c3C[C@@H]12 | 34.3 µM | > 75 µM | 40.7 µM | Dose-dependent effect | – | – | – | – | 53.7 µM | – | –
C=C1C(=O)O[C@H]2/C=C(\C)C[C@@H]3C=C(CC[C@@H](OO)C(=C)CC[C@H]12)C(=O)O3 | 15.7 µM | > 27.8 µM | 4.7 µM | Dose-dependent effect | Active | Dose-dependent effect | – | Active | 18.8 µM | – | Active
COC(C)(C)CCCC1(C)CCc2c(CCC(=O)c3ccc(O)cc3O)ccc(O)c2O1 (stereo not given) | 48.3 µM | – | 39.9 µM | – | – | – | – | – | – | – | –
CC(C)(O)CCCC1(C)CCc2c(CCC(=O)c3ccc(O)cc3O)ccc(O)c2O1 (stereo not given) | 36.7 µM | – | 29.5 µM | – | – | – | – | – | – | – | –
CC(C)=CCCC1(C)CCc2c(CCC(=O)c3ccc(O)cc3O)ccc(O)c2O1 (stereo not given) | 59.5 µM | > 75 µM | 44.2 µM | Dose-dependent effect | – | – | – | – | – | – | –
C=C1C(=O)O[C@H]2/C=C(\C)C[C@@H]3C=C(C/C=C/[C@@](C)(OO)CC[C@H]12)C(=O)O3 | 17.9 µM | > 55.6 µM | 7.6 µM | Dose-dependent effect | Active | Dose-dependent effect | – | Active | 30.3 µM | – | –
C=C1C(=O)O[C@H]2/C=C(\C)C[C@@H]3C=C(C/C=C/[C@@](C)(O)CC[C@H]12)C(=O)O3 | 46.9 µM | > 50 µM | 16.3 µM | – | – | – | – | – | – | – | –
C/C(=C\Cc1c(CCC(=O)c2ccc(O)cc2O)ccc(O)c1O)CCCC(C)(C)O | > 75 µM | > 75 µM | > 75 µM | – | – | – | – | – | – | – | –
COC(C)(C)CCC/C(C)=C/Cc1c(CCC(=O)c2ccc(O)cc2O)ccc(O)c1O | > 75 µM | > 75 µM | > 75 µM | – | – | – | – | – | – | Active | –
CC(C)=CCCC1(C)Oc2c(O)ccc(CCC(=O)c3ccc(O)cc3O)c2CC1O (stereo not given) | 50 µM | > 75 µM | 40.1 µM | Dose-dependent effect | – | – | – | – | – | – | –
